In paper PMC7613998, “Development of selective inhibitors of phosphatidylinositol 3-kinase C2α” (Nature Chemical Biology, 2022):

What was measured:
Assay in all cases: biochemical
Parameters in all cases: SelectScreen Z'-LYTE purified kinase panel, per cent inhibition, mean of two points
Details in all cases: (μM)=Km app
CSNK1G2 (CK1 gamma 2) = CSNK1G2 (CK1 gamma 2) (Homo sapiens, UniProt P78368)
DNA-PK = target: T1, DNA-PK (Homo sapiens, UniProt P78527)
T1 construct: gene PRKDC

IKBKB (IKK beta) = target: T2, IKBKB (IKK beta) (Homo sapiens, UniProt O14920)
T2 sequence (O14920 1-756): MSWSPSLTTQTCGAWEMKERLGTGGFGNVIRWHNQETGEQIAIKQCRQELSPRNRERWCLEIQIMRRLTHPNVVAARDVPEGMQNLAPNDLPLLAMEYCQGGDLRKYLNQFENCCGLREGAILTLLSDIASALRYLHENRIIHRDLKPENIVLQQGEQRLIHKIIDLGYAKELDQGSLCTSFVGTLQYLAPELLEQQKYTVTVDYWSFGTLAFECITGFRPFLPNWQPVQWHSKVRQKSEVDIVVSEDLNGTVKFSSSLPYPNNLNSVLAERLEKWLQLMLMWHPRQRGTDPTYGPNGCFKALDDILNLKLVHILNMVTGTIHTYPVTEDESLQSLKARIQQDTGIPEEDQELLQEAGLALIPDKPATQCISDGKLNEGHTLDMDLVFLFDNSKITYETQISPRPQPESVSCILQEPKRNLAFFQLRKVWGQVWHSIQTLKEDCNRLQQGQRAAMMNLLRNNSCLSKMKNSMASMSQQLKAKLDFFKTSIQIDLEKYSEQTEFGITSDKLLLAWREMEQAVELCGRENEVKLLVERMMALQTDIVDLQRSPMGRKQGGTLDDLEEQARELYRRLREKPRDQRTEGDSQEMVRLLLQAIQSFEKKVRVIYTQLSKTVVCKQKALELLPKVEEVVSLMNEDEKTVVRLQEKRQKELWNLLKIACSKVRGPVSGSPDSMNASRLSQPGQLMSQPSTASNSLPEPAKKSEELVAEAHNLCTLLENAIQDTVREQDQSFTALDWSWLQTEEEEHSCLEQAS

INSR = INSR (Homo sapiens, UniProt P06213)
Chain of INSR (P06213 whole entry): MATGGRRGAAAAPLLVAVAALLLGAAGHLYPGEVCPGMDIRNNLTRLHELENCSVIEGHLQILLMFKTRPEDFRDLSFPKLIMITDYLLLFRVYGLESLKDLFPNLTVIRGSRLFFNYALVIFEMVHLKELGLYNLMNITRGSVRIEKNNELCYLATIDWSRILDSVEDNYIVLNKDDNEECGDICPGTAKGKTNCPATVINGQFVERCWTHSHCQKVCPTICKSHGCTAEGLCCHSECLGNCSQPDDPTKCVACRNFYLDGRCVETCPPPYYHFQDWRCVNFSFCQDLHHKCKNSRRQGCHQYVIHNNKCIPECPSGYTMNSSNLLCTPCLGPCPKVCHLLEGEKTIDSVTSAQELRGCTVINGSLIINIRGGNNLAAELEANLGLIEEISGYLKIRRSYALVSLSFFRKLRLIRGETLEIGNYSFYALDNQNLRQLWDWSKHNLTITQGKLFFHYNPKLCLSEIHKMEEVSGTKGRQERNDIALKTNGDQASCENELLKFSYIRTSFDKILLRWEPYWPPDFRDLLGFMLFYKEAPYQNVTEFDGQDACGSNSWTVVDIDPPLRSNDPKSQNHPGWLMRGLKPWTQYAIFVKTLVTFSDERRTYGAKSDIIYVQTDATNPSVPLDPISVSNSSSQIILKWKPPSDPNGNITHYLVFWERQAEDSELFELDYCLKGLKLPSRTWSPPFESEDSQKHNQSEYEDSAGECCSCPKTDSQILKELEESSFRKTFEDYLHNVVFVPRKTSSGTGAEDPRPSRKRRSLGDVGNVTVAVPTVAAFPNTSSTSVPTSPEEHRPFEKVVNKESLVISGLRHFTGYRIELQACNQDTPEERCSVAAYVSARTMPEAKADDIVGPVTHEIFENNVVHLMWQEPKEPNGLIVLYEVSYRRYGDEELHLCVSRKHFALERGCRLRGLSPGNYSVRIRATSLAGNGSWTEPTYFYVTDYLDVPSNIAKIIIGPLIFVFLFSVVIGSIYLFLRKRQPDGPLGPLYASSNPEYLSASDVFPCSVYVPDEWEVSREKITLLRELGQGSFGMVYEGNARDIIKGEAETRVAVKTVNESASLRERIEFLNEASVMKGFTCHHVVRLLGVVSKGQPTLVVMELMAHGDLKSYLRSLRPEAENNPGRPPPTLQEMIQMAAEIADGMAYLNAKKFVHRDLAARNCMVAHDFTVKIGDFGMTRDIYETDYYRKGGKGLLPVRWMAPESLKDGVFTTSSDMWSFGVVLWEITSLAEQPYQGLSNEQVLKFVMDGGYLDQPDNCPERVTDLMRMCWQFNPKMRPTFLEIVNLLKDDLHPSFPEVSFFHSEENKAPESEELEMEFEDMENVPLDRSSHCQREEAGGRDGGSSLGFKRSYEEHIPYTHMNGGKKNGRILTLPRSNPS

KIT = KIT (Homo sapiens, UniProt P10721)
Chain of KIT (P10721 whole entry): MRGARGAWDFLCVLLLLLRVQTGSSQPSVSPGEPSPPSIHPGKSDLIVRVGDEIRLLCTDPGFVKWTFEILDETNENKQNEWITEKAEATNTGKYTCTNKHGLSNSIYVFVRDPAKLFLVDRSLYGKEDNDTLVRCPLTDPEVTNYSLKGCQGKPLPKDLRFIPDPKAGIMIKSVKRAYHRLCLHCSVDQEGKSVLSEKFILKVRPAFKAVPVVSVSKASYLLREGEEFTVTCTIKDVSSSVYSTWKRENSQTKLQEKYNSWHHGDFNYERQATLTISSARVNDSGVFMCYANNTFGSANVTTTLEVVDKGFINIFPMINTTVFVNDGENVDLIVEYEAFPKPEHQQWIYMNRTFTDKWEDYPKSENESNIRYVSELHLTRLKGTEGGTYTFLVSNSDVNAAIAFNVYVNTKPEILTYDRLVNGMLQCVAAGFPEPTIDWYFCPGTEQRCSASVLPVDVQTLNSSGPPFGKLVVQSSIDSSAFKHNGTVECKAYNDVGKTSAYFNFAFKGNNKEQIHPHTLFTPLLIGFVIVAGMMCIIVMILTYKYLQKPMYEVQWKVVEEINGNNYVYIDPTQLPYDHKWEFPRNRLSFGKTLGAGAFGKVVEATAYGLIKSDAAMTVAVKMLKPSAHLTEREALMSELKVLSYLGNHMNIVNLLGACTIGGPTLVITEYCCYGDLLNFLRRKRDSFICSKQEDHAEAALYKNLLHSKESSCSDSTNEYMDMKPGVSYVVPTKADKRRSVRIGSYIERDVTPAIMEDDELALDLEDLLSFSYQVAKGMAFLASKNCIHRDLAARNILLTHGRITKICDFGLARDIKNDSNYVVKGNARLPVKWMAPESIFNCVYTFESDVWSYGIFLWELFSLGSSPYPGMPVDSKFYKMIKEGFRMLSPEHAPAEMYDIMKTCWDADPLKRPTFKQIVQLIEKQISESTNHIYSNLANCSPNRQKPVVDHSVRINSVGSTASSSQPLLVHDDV

MAPK11 (p38 beta) = MAPK11 (p38 beta) (Homo sapiens, UniProt Q15759)
Chain of MAPK11 (p38 beta) (Q15759 whole entry): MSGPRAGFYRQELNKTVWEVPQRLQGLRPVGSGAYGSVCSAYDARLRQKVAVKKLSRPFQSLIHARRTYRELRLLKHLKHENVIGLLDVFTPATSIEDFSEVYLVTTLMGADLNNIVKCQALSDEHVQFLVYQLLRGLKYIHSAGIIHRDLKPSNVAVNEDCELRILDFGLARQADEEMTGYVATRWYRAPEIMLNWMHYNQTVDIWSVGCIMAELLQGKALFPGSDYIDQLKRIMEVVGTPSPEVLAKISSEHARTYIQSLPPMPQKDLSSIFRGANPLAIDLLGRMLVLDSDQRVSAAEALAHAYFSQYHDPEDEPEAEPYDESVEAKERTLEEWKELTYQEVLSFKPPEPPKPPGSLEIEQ

MAPKAPK2 = MAPKAPK2 (Homo sapiens, UniProt P49137)
Chain of MAPKAPK2 (P49137 whole entry): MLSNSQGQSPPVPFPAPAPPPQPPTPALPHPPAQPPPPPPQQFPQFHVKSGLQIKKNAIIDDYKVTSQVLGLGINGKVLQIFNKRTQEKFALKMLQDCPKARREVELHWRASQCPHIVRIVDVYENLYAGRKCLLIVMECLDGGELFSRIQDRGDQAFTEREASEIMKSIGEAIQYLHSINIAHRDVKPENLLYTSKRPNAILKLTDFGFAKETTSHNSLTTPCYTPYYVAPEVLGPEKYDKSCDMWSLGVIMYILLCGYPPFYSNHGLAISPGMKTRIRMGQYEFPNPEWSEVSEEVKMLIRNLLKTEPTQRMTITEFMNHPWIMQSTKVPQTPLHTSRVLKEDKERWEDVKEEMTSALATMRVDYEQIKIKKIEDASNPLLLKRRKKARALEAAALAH

PAK4 = PAK4 (Homo sapiens, UniProt O96013)
Chain of PAK4 (O96013 whole entry): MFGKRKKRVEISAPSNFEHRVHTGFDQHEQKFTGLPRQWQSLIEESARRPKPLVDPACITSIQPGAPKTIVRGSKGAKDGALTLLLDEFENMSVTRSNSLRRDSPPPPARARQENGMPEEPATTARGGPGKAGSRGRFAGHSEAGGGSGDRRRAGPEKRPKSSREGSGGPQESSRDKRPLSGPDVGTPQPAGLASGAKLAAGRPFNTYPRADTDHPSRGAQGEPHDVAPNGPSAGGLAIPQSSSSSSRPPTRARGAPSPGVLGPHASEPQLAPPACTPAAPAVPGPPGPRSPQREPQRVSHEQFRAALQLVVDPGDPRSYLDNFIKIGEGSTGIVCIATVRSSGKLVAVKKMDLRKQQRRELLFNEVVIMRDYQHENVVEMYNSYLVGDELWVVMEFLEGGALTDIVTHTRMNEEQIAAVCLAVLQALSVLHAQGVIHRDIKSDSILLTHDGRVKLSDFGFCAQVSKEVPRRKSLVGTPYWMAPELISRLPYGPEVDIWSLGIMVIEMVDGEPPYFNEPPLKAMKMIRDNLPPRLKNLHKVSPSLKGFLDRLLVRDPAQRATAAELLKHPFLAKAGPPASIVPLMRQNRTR

PIM3 = PIM3 (Homo sapiens, UniProt Q86V86)
PRKCE (PKC epsilon) = target: T3, PRKCE (PKC epsilon) (Homo sapiens, UniProt Q02156)
T3 sequence (Q02156 1-737): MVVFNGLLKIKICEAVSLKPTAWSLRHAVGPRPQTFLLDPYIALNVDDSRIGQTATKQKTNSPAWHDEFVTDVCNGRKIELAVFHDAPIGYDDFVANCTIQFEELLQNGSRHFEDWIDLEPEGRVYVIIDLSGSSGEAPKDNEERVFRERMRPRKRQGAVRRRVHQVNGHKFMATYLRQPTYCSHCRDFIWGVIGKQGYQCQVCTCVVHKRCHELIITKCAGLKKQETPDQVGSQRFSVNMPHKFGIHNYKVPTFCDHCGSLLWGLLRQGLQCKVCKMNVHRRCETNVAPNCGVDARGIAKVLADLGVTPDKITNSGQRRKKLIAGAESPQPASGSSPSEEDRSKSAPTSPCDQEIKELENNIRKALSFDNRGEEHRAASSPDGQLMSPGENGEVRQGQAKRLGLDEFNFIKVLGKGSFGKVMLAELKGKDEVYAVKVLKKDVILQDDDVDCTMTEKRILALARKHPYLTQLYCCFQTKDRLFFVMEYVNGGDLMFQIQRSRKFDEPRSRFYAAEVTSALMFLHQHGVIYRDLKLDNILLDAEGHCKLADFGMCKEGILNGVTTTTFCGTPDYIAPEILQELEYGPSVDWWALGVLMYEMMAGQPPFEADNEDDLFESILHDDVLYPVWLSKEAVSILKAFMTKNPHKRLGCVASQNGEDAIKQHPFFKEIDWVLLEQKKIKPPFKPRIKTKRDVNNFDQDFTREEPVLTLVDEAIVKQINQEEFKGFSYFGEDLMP

ROCK2 = ROCK2 (Homo sapiens, UniProt O75116)
Chain of ROCK2 (O75116 whole entry): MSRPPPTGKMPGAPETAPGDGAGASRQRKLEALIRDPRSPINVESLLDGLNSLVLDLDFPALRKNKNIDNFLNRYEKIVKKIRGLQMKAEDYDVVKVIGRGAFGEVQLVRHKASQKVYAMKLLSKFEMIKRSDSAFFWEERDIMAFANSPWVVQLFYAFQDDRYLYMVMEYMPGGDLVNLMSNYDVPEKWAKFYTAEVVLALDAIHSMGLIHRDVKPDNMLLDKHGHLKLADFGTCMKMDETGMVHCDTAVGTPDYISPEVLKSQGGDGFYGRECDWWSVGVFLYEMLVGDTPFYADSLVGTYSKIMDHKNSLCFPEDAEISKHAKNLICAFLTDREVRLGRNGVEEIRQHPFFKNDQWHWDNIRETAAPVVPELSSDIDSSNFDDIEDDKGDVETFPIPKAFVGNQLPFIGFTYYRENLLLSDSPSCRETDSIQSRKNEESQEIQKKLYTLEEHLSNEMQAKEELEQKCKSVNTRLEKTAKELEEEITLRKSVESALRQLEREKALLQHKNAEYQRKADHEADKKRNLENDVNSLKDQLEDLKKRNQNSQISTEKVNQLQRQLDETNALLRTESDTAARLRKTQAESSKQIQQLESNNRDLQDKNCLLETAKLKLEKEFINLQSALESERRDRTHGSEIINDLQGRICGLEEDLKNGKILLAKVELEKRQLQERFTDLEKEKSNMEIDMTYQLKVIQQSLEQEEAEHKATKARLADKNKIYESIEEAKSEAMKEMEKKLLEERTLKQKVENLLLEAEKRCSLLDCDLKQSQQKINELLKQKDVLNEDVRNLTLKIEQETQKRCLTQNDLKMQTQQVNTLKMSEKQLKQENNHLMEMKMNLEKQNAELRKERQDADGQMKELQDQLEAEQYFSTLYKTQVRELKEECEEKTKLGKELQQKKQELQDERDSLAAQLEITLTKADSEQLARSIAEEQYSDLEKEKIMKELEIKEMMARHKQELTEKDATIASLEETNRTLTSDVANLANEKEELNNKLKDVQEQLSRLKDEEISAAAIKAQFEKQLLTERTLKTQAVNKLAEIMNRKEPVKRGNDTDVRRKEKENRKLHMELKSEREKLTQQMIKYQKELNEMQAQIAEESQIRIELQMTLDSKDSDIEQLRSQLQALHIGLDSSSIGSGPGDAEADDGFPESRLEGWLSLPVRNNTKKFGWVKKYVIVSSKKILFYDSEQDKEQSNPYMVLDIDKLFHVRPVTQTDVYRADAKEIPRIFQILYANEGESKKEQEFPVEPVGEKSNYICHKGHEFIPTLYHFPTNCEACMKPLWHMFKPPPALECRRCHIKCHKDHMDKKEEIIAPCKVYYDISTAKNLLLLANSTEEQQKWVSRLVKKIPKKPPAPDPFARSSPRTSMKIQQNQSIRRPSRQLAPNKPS

SRC = SRC (Homo sapiens, UniProt P12931)

inhibition at 1 µM (CSNK1G2 (CK1 gamma 2)) [%] | inhibition at 3 µM (CSNK1G2 (CK1 gamma 2)) [%] | inhibition at 10 µM (CSNK1G2 (CK1 gamma 2)) [%] | inhibition at 1 µM (DNA-PK) [%] | inhibition at 3 µM (DNA-PK) [%] | inhibition at 10 µM (DNA-PK) [%] | inhibition at 1 µM (IKBKB (IKK beta)) [%] | inhibition at 3 µM (IKBKB (IKK beta)) [%] | inhibition at 10 µM (IKBKB (IKK beta)) [%] | inhibition at 1 µM (INSR) [%] | inhibition at 3 µM (INSR) [%] | inhibition at 10 µM (INSR) [%] | inhibition at 1 µM (KIT) [%] | inhibition at 3 µM (KIT) [%] | inhibition at 10 µM (KIT) [%] | inhibition at 1 µM (MAPK11 (p38 beta)) [%] | inhibition at 3 µM (MAPK11 (p38 beta)) [%] | inhibition at 10 µM (MAPK11 (p38 beta)) [%] | inhibition at 1 µM (MAPKAPK2) [%] | inhibition at 3 µM (MAPKAPK2) [%] | Structure (SMILES) | further results
7.85 | 15.6 | 13.7 | 11 | 23.7 | 23.3 | 3.7 | 14.3 | 12.2 | 3.69 | 4.01 | 4.66 | -9.5 | 14.5 | -3.62 | 10.5 | 8.66 | 4.91 | 0.509 | 3.08 | CS(=O)(=O)Nc1cccc(-c2csc(NC(=O)CSc3nc4nccnc4c(=O)n3CCc3ccccc3)n2)c1 [compound 3, PITCOIN3] | inhibition at 10 µM (MAPKAPK2): 6.37%; inhibition at 1 µM (PAK4): 4.8%; inhibition at 3 µM (PAK4): 3.9%; inhibition at 10 µM (PAK4): 2.41%; inhibition at 1 µM (PIM3): -2.65%; inhibition at 3 µM (PIM3): -27.1%; inhibition at 10 µM (PIM3): -12.5%; inhibition at 1 µM (PRKCE (PKC epsilon)): -17.8%; inhibition at 3 µM (PRKCE (PKC epsilon)): -1.73%; inhibition at 10 µM (PRKCE (PKC epsilon)): -22.6%; inhibition at 1 µM (ROCK2): 7.17%; inhibition at 3 µM (ROCK2): -3.73%; inhibition at 10 µM (ROCK2): 2.1%; inhibition at 1 µM (SRC): 9.83%; inhibition at 3 µM (SRC): 12.2%; inhibition at 10 µM (SRC): 7.36%
0.334 | 6.89 | 8.12 | 13.4 | 14.1 | 12.5 | 8.34 | 4.24 | 4.15 | 3.42 | 3.95 | 0.721 | -11.3 | 5.95 | -5.32 | 9.02 | 8.06 | 7.22 | 4.27 | 5.91 | O=C(CSc1nc2nccnc2c(=O)n1CCc1ccccc1)Nc1nccs1 [compound 1, PITCOIN1] | inhibition at 10 µM (MAPKAPK2): 1.1%; inhibition at 1 µM (PAK4): 9.59%; inhibition at 3 µM (PAK4): 9%; inhibition at 10 µM (PAK4): 4.11%; inhibition at 1 µM (PIM3): -19.5%; inhibition at 3 µM (PIM3): 0.932%; inhibition at 10 µM (PIM3): 0.817%; inhibition at 1 µM (PRKCE (PKC epsilon)): -11.8%; inhibition at 3 µM (PRKCE (PKC epsilon)): 23.9%; inhibition at 10 µM (PRKCE (PKC epsilon)): -9.1%; inhibition at 1 µM (ROCK2): 2.33%; inhibition at 3 µM (ROCK2): 1.58%; inhibition at 10 µM (ROCK2): 5.34%; inhibition at 1 µM (SRC): 8.59%; inhibition at 3 µM (SRC): 3.7%; inhibition at 10 µM (SRC): 9.6%
